Experimental data as given in US20250345492A1, “AN ANTIBACTERIAL POLYPEPTIDE COMPOUND, A MEDICAL DEVICE, HYDROGEL AND USE THEREOF” (priority 2020, published 2025).
≈ marks a conversion by molar mass, not a printed value. Like-named read-outs stand apart in the source and are kept apart here. Ends that are not written are not given here. Peptide text beside a SMILES is read from it.

What was measured:
[1] = test system: mouse red blood cells
Experimental: The hemolytic activity was determined by measuring a hemolytic concentration for mouse red blood cells with the antibacterial polypeptide compounds.
The mouse red blood cells was diluted to a concentration of 8%, the obtained red blood cell suspension was added to a 96-well plate (100 μL per well), and then 100 μL of one compound was added to a corresponding well. After incubation for 1 hour, the supernatant of each well was added to another 96-well plate, and then the absorbance value of the sample supernatant was measured at 490 nm using a ELISA reader. With regard to the present invention, PBS and 2% Triton-X 100 were used as a negative control and a positive control, separately.

[2] = test system: E. coli (ATCC 25922); assay: Mouse septic peritonitis model, survival; type: in vivo, Kunming mice; conditions: 20 mg/kg intraperitoneally one hour after E. coli inoculation, 7 days of observation
Experimental: The determination of the in vivo antibacterial activity of the antibacterial polypeptide compounds is to reflect the antibacterial activity in vivo by detecting the survival rate of mice infected with bacteria or fungi.
Taking compounds 2, 8, 9, 13 and 15 of the present invention as examples, the in vivo antibacterial effects of the antibacterial polypeptide compounds were analyzed. The mice used in this test were Kunming mice, which were placed in constant-temperature environment (22±1° C.). Simply, 36 Kunming mice (18-22 g of body weight) were randomly divided into 6 groups and intraperitoneally injected with 0.2 ml of 3×10^8 CFU/mL E. coli (ATCC 25922) on Day 1 to establish mouse septic peritonitis model. The mice were administered intraperitoneally one hour after inoculation with the bacteria, and then the compounds 2, 8, 9, 13 and 15 were injected intraperitoneally at a dose of 20 mg/kg of body weight. Polymyxin B (20 mg/kg) was selected as a positive reference control, and a negative control group received intraperitoneal injection of sterile saline. After 7 days of observation, the survival rates of mice in administration groups and control groups were calculated to create survival curves.

[3] = test system: Bacillus subtilis (ATCC 23857)
Text: (§1) With respect to the determination of antibacterial activity and antifungal activity of the antibacterial polypeptide compounds, the bacterial strains employed included: E. coli (ATCC 25922), E. coli (ATCC 43837), Pseudomonas aeruginosa (ATCC 27853), Klebsiella pneumoniae (ATCC 700603), Cronobacter sakazakii (ATCC 29544), Staphylococcus aureus (ATCC 29213), Bacillus subtilis (ATCC 23857) and Staphylococcus epidermidis (ATCC 12228); and the fungal strains employed included Candida albicans (ATCC 14053), Candida glabrata (ATCC 2001), Candida parapsilosis (ATCC 22019), Candida tropicalis (ATCC 750) and Candida krusei (ATCC 6258), all of which were standard strains from American Type Culture Collection. In addition, drug-resistant strains S-1a, S-2a, S-3a, S-4a, E-1b, E-2b, E-3b, E-4b, E-5b, P-1c, P-2c, P-3c, P-4c, P-5c, and clinically isolated fungal strains Candida glabrata 2-1 and Candida albicans 14-1, 14-2 and 14-3 were employed, all which were clinically isolated.
(§2) Simply, a proper amount of the cryopreserved bacterium or fungus was added to fresh MH/SD medium, and cultured on a shaker overnight at 180 rpm at 37° C. The obtained cells were seeded again and cultured on a shaker for 4-5 hours to obtain cells in logarithmic phase. The resulting cells were added to a 96-well plate (1×10^5 CFU/ml, 100 μL/well), and then 100 μL of polypeptide with different concentrations (1-256 μM) twice the final concentrations was added to corresponding well according to the 2-fold serial dilution method. The fresh medium was used as a negative control, which was prepared in triplicate for each concentration. After dosing, the 96-well plate was placed in an incubator at constant 37° C. and humidity for 12 hours to observe the results. According to naked eye observations, the concentration of the compound in the first transparent well following the turbid wells was recorded as the MIC of the compound, namely, the MIC value of the compound to the bacterium or fungus.

[4] = test system: C. albicans ATCC14053
Text: as §1, §2

[5] = test system: C. glabrata ATCC22019
Text: as §1, §2

[6] = test system: C. krusei ATCC6258
Text: as §1, §2

[7] = test system: C. parapsilosis ATCC2001
Text: as §1, §2

[8] = test system: C. tropicalis ATCC750
Text: as §1, §2

[9] = test system: Cronobacter sakazakii (ATCC 29544)
Text: as §1, §2

[10] = test system: E-1b, clinical isolated drug-resistant strain ESBL; conditions: strain E-1b (ESBL)
Text: as §1, §2

[11] = test system: E-2b, clinical isolated drug-resistant strain ESBL; conditions: strain E-2b (ESBL)
Text: as §1, §2

[12] = test system: E-3b, clinical isolated drug-resistant strain ESBL; conditions: strain E-3b (ESBL)
Text: as §1, §2

[13] = test system: E-4b, clinical isolated drug-resistant strain ESBL; conditions: strain E-4b (ESBL)
Text: as §1, §2

[14] = test system: E-5b, clinical isolated drug-resistant strain ESBL; conditions: strain E-5b (ESBL)
Text: as §1, §2

[15] = test system: E. coli (ATCC 25922)
Text: as §1, §2

[16] = test system: P-1c, clinical isolated drug-resistant strain PA; conditions: strain P-1c (PA)
Text: as §1, §2

[17] = test system: P-2c, clinical isolated drug-resistant strain PA; conditions: strain P-2c (PA)
Text: as §1, §2

[18] = test system: P-3c, clinical isolated drug-resistant strain PA; conditions: strain P-3c (PA)
Text: as §1, §2

[19] = test system: P-4c, clinical isolated drug-resistant strain PA; conditions: strain P-4c (PA)
Text: as §1, §2

[20] = test system: P-5c, clinical isolated drug-resistant strain PA; conditions: strain P-5c (PA)
Text: as §1, §2

[21] = test system: Pseudomonas aeruginosa (ATCC 27853); conditions: standard strain
Text: as §1, §2

[22] = test system: S-1a, clinical isolated drug-resistant strain MRSA; conditions: strain S-1a (MRSA)
Text: as §1, §2

[23] = test system: S-2a, clinical isolated drug-resistant strain MRSA; conditions: strain S-2a (MRSA)
Text: as §1, §2

[24] = test system: S-3a, clinical isolated drug-resistant strain MRSA; conditions: strain S-3a (MRSA)
Text: as §1, §2

[25] = test system: S-4a, clinical isolated drug-resistant strain MRSA; conditions: strain S-4a (MRSA)
Text: as §1, §2

[26] = test system: Staphylococcus aureus (ATCC 29213)
Text: as §1, §2

[27] = test system: Staphylococcus epidermidis (ATCC 12228)
Text: as §1, §2

[28] = test system: human cervical cancer cell Hela; assay: Cytotoxicity, MTT colorimetry; type: cell-based
Experimental: (§3) For cytotoxicity determination, the MTT colorimetry was used to evaluate the effects of the compounds on the proliferation of human cervical cancer cell Hela, human embryonic renal epithelial cell HEK293 and mouse mononuclear macrophage RAW264.7.
(§4) Taking compounds 2, 8, 9, 13 and 15 of the present invention as examples, the cytotoxicity of the antibacterial polypeptide compounds was analyzed. Three cell lines were employed for the present invention, namely human cervical cancer cell Hela, human embryonic renal epithelial cell HEK293 and mouse mononuclear macrophage RAW264.7. Hela cells were cultured in RPMI 1640 medium with 10% newborn calf serum, HEK293 cells and RAW264.7 cells were cultured in DMEM medium with 10% fetal bovine serum. Simply, cells (1×10^4 cells/well) were inoculated to a 96-well plate and incubated in an incubator set to 5% CO2 at 37° C. After 24 hours, compounds of different concentrations were added and incubated in the 5% CO2 incubator. After 24 hours, 20 μL of MTT solution with a concentration of 5 mg/mL was added to each well and incubated for 4 hours. After that, the medium was removed with a pipet, and 150 μL of DMSO added to dissolve the purple-blue formazan crystals. The solution was shaken in an oscillator for 5 mins before detecting the absorbance value at 570 nm using the ELISA reader, and then the survival rate was calculated with the formula: (OD dosing group/OD control group)×100% (n=3).

[29] = test system: human embryonic renal epithelial cell HEK293; assay: Cytotoxicity, MTT colorimetry; type: cell-based
Experimental: as §3, §4

[30] = test system: mouse mononuclear macrophage RAW264.7; assay: Cytotoxicity, MTT colorimetry; type: cell-based
Experimental: as §3, §4

[31] = Acute toxicity in mice; set-up: species or system Kunming mice; conditions: mouse, in vivo, ip, intraperitoneal injection, Karber method
Experimental: Acute toxicity of the compounds was determined by measuring the acute toxicity in mice with the compounds.
Taking compounds 2, 8, 9, 13 and 15 of the present invention as examples, […]. The mice used in this test were Kunming mice, which were placed in constant-temperature environment (22±1° C.) and could freely obtain water and food. Simply, 132 healthy Kunming mice were randomly divided into 11 groups, with 12 mice in each group (half male and half female), wherein, 5 groups were intraperitoneally injected with 0.2 ml of the compounds of different doses (100-1000 mg/kg), and the control group was intraperitoneally injected with normal saline. In this experiment, melittin was used as a reference control, and the other 5 groups were intraperitoneally injected with melittin of different doses (10-32 mg/kg). The state of mice was observed and recorded after 2 hours of administration, and then observed twice a day for 14 days, and the survival rates of the mice were recorded.

Compound	MIC [10]	MIC [11]	MIC [12]	MIC [13]	MIC [14]	MIC [16]	MIC [17]	MIC [18]	MIC [19]	MIC [20]	MIC P. aerugmosa ATCC27853 [21]	MIC [22]	MIC [23]	MIC [24]	MIC [25]	LD50 [31]	also measured
Triton X-100																	hemolysis rate [1]: 100%
Polymyxin B																	survival rate of mice [2]: 100%
PWKLSLHL-NH2 [Compound 8]	16 µM	16 µM	16 µM	16 µM	16 µM	16 µM	8 µM	8 µM	8 µM	8 µM	16 µM	64 µM	64 µM	64 µM	64 µM	> 1000 mg/kg	MIC B. subtilis ATCC23857 ([3]; ATCC 23857): 16 µM; MIC C. albicans ATCC14053 ([4]; ATCC14053): 16 µM; MIC C. glabrata ATCC22019 ([5]; ATCC22019): 16 µM; MIC C. krusei ATCC6258 ([6]; ATCC6258): 32 µM; MIC C. parapsilosis ATCC2001 ([7]; ATCC2001): 16 µM; MIC C. tropicalis ATCC750 ([8]; ATCC750): 16 µM; MIC C. sakazakii ATCC29544 ([9]; ATCC 29544): 16 µM; MIC C. coli ATCC25922 ([15]; ATCC 25922): 16 µM; MIC S. aureus ATCC29213 ([26]; ATCC 29213): 64 µM; MIC S. epidermidis ATCC12228 ([27]; ATCC 12228): 32 µM; effect on proliferation (inhibitory activity) [28]: no inhibitory activity; effect on proliferation (inhibitory activity) [29]: no inhibitory activity; effect on proliferation (inhibitory activity) [30]: no inhibitory activity
CC(C)C[C@H](NC(=O)[C@H](CCCCN)NC(=O)[C@H](CC(C)C)NC(=O)[C@H](CO)NC(=O)[C@H](CC(C)C)NC(=O)[C@H](CCCN)NC(=O)[C@H](Cc1ccccc1)NC(=O)[C@@H]1CCCN1)C(N)=O [Compound 2, Pro-Phe-Orn-Leu-Ser-Leu-Lys-Leu-NH2] (HELM PEPTIDE1{P.F.[Orn].L.S.L.K.L.[am]}$$$$V2.0)	16 µM (≈ 14.9 µg/mL)	16 µM (≈ 14.9 µg/mL)	16 µM (≈ 14.9 µg/mL)	8 µM (≈ 7.44 µg/mL)	8 µM (≈ 7.44 µg/mL)	8 µM (≈ 7.44 µg/mL)	8 µM (≈ 7.44 µg/mL)	8 µM (≈ 7.44 µg/mL)	8 µM (≈ 7.44 µg/mL)	8 µM (≈ 7.44 µg/mL)	8 µM (≈ 7.44 µg/mL)	64 µM (≈ 59.5 µg/mL)	64 µM (≈ 59.5 µg/mL)	64 µM (≈ 59.5 µg/mL)	64 µM (≈ 59.5 µg/mL)	> 1000 mg/kg	MIC B. subtilis ATCC23857 ([3]; standard strain): 16 µM (≈ 14.9 µg/mL); MIC C. albicans ATCC14053 ([4]; fungus): 32 µM (≈ 29.8 µg/mL); MIC C. glabrata ATCC22019 ([5]; fungus): 32 µM (≈ 29.8 µg/mL); MIC C. krusei ATCC6258 ([6]; fungus): 32 µM (≈ 29.8 µg/mL); MIC C. parapsilosis ATCC2001 ([7]; fungus): 16 µM (≈ 14.9 µg/mL); MIC C. tropicalis ATCC750 ([8]; fungus): 32 µM (≈ 29.8 µg/mL); MIC C. sakazakii ATCC29544 ([9]; standard strain): 32 µM (≈ 29.8 µg/mL); MIC C. coli ATCC25922 ([15]; standard strain): 16 µM (≈ 14.9 µg/mL); MIC S. aureus ATCC29213 ([26]; standard strain): 64 µM (≈ 59.5 µg/mL); MIC S. epidermidis ATCC12228 ([27]; standard strain): 16 µM (≈ 14.9 µg/mL); effect on proliferation (inhibitory activity) ([28]; Hela cell line, MTT, 24 hours): no inhibitory activity; effect on proliferation (inhibitory activity) ([29]; HEK293 cell line, MTT, 24 hours): no inhibitory activity; effect on proliferation (inhibitory activity) ([30]; RAW 264.7 cell line, MTT, 24 hours): no inhibitory activity
